Assay results as given in US20050009924A1 (priority 2003, published 2005).

Columns and labels:
[1] = test system: rat glioma C6 cells; experiment: Cytotoxicity assay (XTT colorimetric), C6 cells; format: cell-based; conditions: 48 h of drug exposure
[2] = test system: hepatitis B virus transfected hepatoma cell lines, HepG 2.2.15 cells; experiment: Cytotoxicity assay, 2.2.15 cells; format: cell-based, human; conditions: 48 h of drug exposure
[3] = test system: hTERT-BJ1 cells; experiment: MTT relative viability, PhTERT-SEAP (hTERT-BJ1) cells; conditions: PhTERT-SEAP (hTERT-BJ1)
[4] = test system: transcriptional activity of hTERT; experiment: SEAP reporter assay of hTERT expression, PhTERT-SEAP (hTERT-BJ1); format: cell-based, human; conditions: PhTERT-SEAP (hTERT-BJ1)
In short: (§1)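 Drug exposure: varying amounts, 24 h, following 24 h culture at 37° C and fresh medium. Media heat-inactivated (65° C, 10 min) to remove endogenous phosphatases, then combined 1:1 with diethanolamine/MgCl2/homoarginine buffer and 12 mM p-nitrophenyl phosphate; A405 slope recorded.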

[5] = test system: non-small-cell lung cancer cells H1299; experiment: MTT relative viability, PhTERT-SEAP (H1299) cells; conditions: PhTERT-SEAP(hTERT-H1299)
[6] = test system: human hepatoma G2 cells; experiment: Cytotoxicity assay (XTT colorimetric), Hep G2; format: cell-based; conditions: 48 h of drug exposure
[7] = test system: transcriptional activity of hTERT; experiment: SEAP reporter assay of hTERT expression, PhTERT-SEAP (H1299); format: cell-based, human; conditions: PhTERT-SEAP(hTERT-H1299)
In short: as §1

## O=C(Nc1ccc(NC(=O)c2ccc(Cl)cc2)c2c1C(=O)c1ccccc1C2=O)c1ccc(Cl)cc1 [VI16, 1,4-Bis(4-chlorobenzoylamido)-9,10-anthracenedione]
[1]
  IC50: > 20 µM
[2]
  IC50: > 20 µM
[3]; 1.9 μM
  Relative MTT viability (%): 111 ± 0.8%
[3]; 19 μM
  Relative MTT viability (%): 103 ± 5.9%
[3]; 194 μM
  Relative MTT viability (%): 99 ± 5.2%
[4]; 1.9 μM
  Relative SEAP activity (%): 116 ± 28.6%
  SEAP/vibility: 1.05
[4]; 19 μM
  Relative SEAP activity (%): 112 ± 21.9%
  SEAP/vibility: 1.09
[4]; 194 μM
  Relative SEAP activity (%): 152 ± 39.7%
  SEAP/vibility: 1.54
[5]; 1.9 μM
  Relative MTT viability (%): 89 ± 5.5%
[5]; 19 μM
  Relative MTT viability (%): 89 ± 9.5%
[5]; 194 μM
  Relative MTT viability (%): 79 ± 5.6%
[6]
  IC50: > 20 µM
[7]; 1.9 μM
  Relative SEAP activity (%): 109 ± 6.8%
  SEAP/vibility: 1.23
[7]; 19 μM
  Relative SEAP activity (%): 118 ± 5.6%
  SEAP/vibility: 1.33
[7]; 194 μM
  Relative SEAP activity (%): 116 ± 12.3%
  SEAP/vibility: 1.46

## O=C(Nc1ccc(NC(=O)c2ccc(F)cc2F)c2c1C(=O)c1ccccc1C2=O)c1ccc(F)cc1F [VI18, 1,4-Bis(2,4-difluorobenzoylamido)-9,10-anthracenedione]
[1]
  IC50: > 20 µM
[2]
  IC50: > 20 µM
[3]; 1.9 μM
  Relative MTT viability (%): 104 ± 5.6%
[3]; 19 μM
  Relative MTT viability (%): 101 ± 4.4%
[3]; 192 μM
  Relative MTT viability (%): 103 ± 6.1%
[4]; 1.9 μM
  Relative SEAP activity (%): 48 ± 21.7%
  SEAP/vibility: 0.46
[4]; 19 μM
  Relative SEAP activity (%): 51 ± 18.5%
  SEAP/vibility: 0.50
[4]; 192 μM
  Relative SEAP activity (%): 48 ± 23.1%
  SEAP/vibility: 0.46
[5]; 1.9 μM
  Relative MTT viability (%): 87 ± 3.7%
[5]; 19 μM
  Relative MTT viability (%): 85 ± 7.1%
[5]; 192 μM
  Relative MTT viability (%): 69 ± 8.4%
[6]
  IC50: > 20 µM
[7]; 1.9 μM
  Relative SEAP activity (%): 93 ± 5.6%
  SEAP/vibility: 1.06
[7]; 19 μM
  Relative SEAP activity (%): 99 ± 5.4%
  SEAP/vibility: 1.17
[7]; 192 μM
  Relative SEAP activity (%): 99 ± 1.8%
  SEAP/vibility: 1.44

## O=C1c2ccccc2C(=O)c2c(NC(=O)C3CCCC3)ccc(NC(=O)C3CCCC3)c21 [VI20, 1,4-Bis(cyclopentaneamido)-9,110-anthracenedione]
[1]
  IC50: > 20 µM
[2]
  IC50: > 20 µM
[3]; 2.3 μM
  Relative MTT viability (%): 106 ± 2.3%
[3]; 23 μM
  Relative MTT viability (%): 103 ± 4.4%
[3]; 233 μM
  Relative MTT viability (%): 93 ± 5.7%
[4]; 2.3 μM
  Relative SEAP activity (%): 85 ± 7.7%
  SEAP/vibility: 0.81
[4]; 23 μM
  Relative SEAP activity (%): 93 ± 18.5%
  SEAP/vibility: 0.90
[4]; 233 μM
  Relative SEAP activity (%): 63 ± 36.5%
  SEAP/vibility: 0.67
[5]; 2.3 μM
  Relative MTT viability (%): 107 ± 6.1%
[5]; 23 μM
  Relative MTT viability (%): 103 ± 6.1%
[5]; 233 μM
  Relative MTT viability (%): 92 ± 8.6%
[6]
  IC50: > 20 µM
[7]; 2.3 μM
  Relative SEAP activity (%): 119 ± 8.5%
  SEAP/vibility: 1.11
[7]; 23 μM
  Relative SEAP activity (%): 118 ± 9.2%
  SEAP/vibility: 1.15
[7]; 233 μM
  Relative SEAP activity (%): 113 ± 8.9%
  SEAP/vibility: 1.23

## O=C1c2ccccc2C(=O)c2c(NC(=O)C3CC3)ccc(NC(=O)C3CC3)c21 [VI21, 1,4-Bis(cyclopropionamido)-9,10-anthracenedione]
[1]
  IC50: > 20 µM
[2]
  IC50: > 20 µM
[3]; 2.6 μM
  Relative MTT viability (%): 103 ± 6.8%
[3]; 26 μM
  Relative MTT viability (%): 82 ± 5.9%
[3]; 267 μM
  Relative MTT viability (%): 58 ± 4.1%
[4]; 2.6 μM
  Relative SEAP activity (%): 64 ± 9.5%
  SEAP/vibility: 0.62
[4]; 26 μM
  Relative SEAP activity (%): 54 ± 8.8%
  SEAP/vibility: 0.66
[4]; 267 μM
  Relative SEAP activity (%): 43 ± 8.3%
  SEAP/vibility: 0.74
[5]; 2.6 μM
  Relative MTT viability (%): 95 ± 4.2%
[5]; 26 μM
  Relative MTT viability (%): 88 ± 4.2%
[5]; 267 μM
  Relative MTT viability (%): 41 ± 4.6%
[6]
  IC50: > 20 µM
[7]; 2.6 μM
  Relative SEAP activity (%): 108 ± 4.9%
  SEAP/vibility: 1.14
[7]; 26 μM
  Relative SEAP activity (%): 106 ± 7.3%
  SEAP/vibility: 1.21
[7]; 267 μM
  Relative SEAP activity (%): 92 ± 5.9%
  SEAP/vibility: 2.23

## O=C(Nc1ccc(NC(=O)c2cc(F)cc(Cl)c2Cl)c2c1C(=O)c1ccccc1C2=O)c1cc(F)cc(Cl)c1Cl [VI23]
[1]
  IC50: > 20 µM
[2]
  IC50: > 20 µM
[3]; 1.6 μM
  Relative MTT viability (%): 111 ± 6.8%
[3]; 16 μM
  Relative MTT viability (%): 110 ± 7.1%
[3]; 161 μM
  Relative MTT viability (%): 101 ± 6.6%
[4]; 1.6 μM
  Relative SEAP activity (%): 113 ± 16.0%
  SEAP/vibility: 1.02
[4]; 16 μM
  Relative SEAP activity (%): 131 ± 19.1%
  SEAP/vibility: 1.20
[4]; 161 μM
  Relative SEAP activity (%): 106 ± 17.3%
  SEAP/vibility: 1.05
[5]; 1.6 μM
  Relative MTT viability (%): 98 ± 7.0%
[5]; 16 μM
  Relative MTT viability (%): 103 ± 8.7%
[5]; 161 μM
  Relative MTT viability (%): 87 ± 5.1%
[6]
  IC50: > 20 µM
[7]; 1.6 μM
  Relative SEAP activity (%): 102 ± 4.1%
  SEAP/vibility: 1.04
[7]; 16 μM
  Relative SEAP activity (%): 102 ± 5.1%
  SEAP/vibility: 0.99
[7]; 161 μM
  Relative SEAP activity (%): 83 ± 4.0%
  SEAP/vibility: 0.95

## O=C(Nc1ccc(NC(=O)c2ccco2)c2c1C(=O)c1ccccc1C2=O)c1ccco1 [VI24, 1,4-Bis(2-furoylamido)-9,10-anthracenedione]
[1]
  IC50: > 20 µM
[2]
  IC50: > 20 µM
[3]; 2.3 μM
  Relative MTT viability (%): 91 ± 9.5%
[3]; 23 μM
  Relative MTT viability (%): 69 ± 10.7%
[3]; 234 μM
  Relative MTT viability (%): 72 ± 11.3%
[4]; 2.3 μM
  Relative SEAP activity (%): 39 ± 7.8%
  SEAP/vibility: 0.43
[4]; 23 μM
  Relative SEAP activity (%): 45 ± 11.0%
  SEAP/vibility: 0.65
[4]; 234 μM
  Relative SEAP activity (%): 37 ± 15.0%
  SEAP/vibility: 0.51
[5]; 2.3 μM
  Relative MTT viability (%): 101 ± 6.0%
[5]; 23 μM
  Relative MTT viability (%): 75 ± 3.9%
[5]; 234 μM
  Relative MTT viability (%): 32 ± 5.1%
[6]
  IC50: > 20 µM
[7]; 2.3 μM
  Relative SEAP activity (%): 99 ± 7.8%
  SEAP/vibility: 0.99
[7]; 23 μM
  Relative SEAP activity (%): 97 ± 4.6%
  SEAP/vibility: 1.30
[7]; 234 μM
  Relative SEAP activity (%): 90 ± 2.9%
  SEAP/vibility: 2.83

## Cc1cc(C(=O)Nc2ccc(NC(=O)c3cc(C)oc3C)c3c2C(=O)c2ccccc2C3=O)c(C)o1 [VI26, 1,4-Bis(2,5-dimethylfuran-3-carbonylamido)-9,10-anthracenedione]
[1]
  IC50: > 20 µM
[2]
  IC50: > 20 µM
[3]; 2.0 μM
  Relative MTT viability (%): 101 ± 6.2%
[3]; 20 μM
  Relative MTT viability (%): 101 ± 5.8%
[3]; 207 μM
  Relative MTT viability (%): 93 ± 7.1%
[4]; 2.0 μM
  Relative SEAP activity (%): 84 ± 13.3%
  SEAP/vibility: 0.83
[4]; 20 μM
  Relative SEAP activity (%): 79 ± 14.7%
  SEAP/vibility: 0.78
[4]; 207 μM
  Relative SEAP activity (%): 81 ± 16.1%
  SEAP/vibility: 0.88
[5]; 2.0 μM
  Relative MTT viability (%): 87 ± 4.9%
[5]; 20 μM
  Relative MTT viability (%): 71 ± 2.3%
[5]; 207 μM
  Relative MTT viability (%): 47 ± 2.6%
[6]
  IC50: > 20 µM
[7]; 2.0 μM
  Relative SEAP activity (%): 104 ± 10.8%
  SEAP/vibility: 1.20
[7]; 20 μM
  Relative SEAP activity (%): 103 ± 10.0%
  SEAP/vibility: 1.46
[7]; 207 μM
  Relative SEAP activity (%): 98 ± 10.5%
  SEAP/vibility: 2.10
